Test results: ChEMBL document CHEMBL4680317, “In vitro and in vivo effects of inhibitors on actin and myosin” (Bioorg Med Chem, 2021)
Activity calls are given as the source filed them. The rule behind the calls is not given here.

What was measured:
Oryctolagus cuniculus [1] = species on record: Oryctolagus cuniculus; experiment: Inhibition of rabbit muscle F-actin depolymerization at 50 to 100 uM incubated for 15 mins by spectrophotometric analysis; format: tissue-based; conditions: Muscle tissue, dose 50-100 µM
Oryctolagus cuniculus [2] = species on record: Oryctolagus cuniculus; experiment: Inhibition of rabbit muscle G-actin polymerization assessed as polymerized G-actin level at 25 uM incubated for 15 mins by spectrophotometric analysis (reference value: 100 %); format: tissue-based; design: scale not given: the % may be the effect or the level left; conditions: Muscle tissue
MDA-MB-231 [3] = experiment: Induction of cell morphological changes in human MDA-MB-231 cells assessed as membrane blebbing at 500 nM measured after 40 sec by inverted microscopy; format: functional, cell-based
MDA-MB-231 [4] = experiment: Antimigratory activity against human MDA-MB-231 cells assessed as cell migration at 10 uM by light microscopy relative to control; format: functional
MDA-MB-231 [5] = experiment: Cytotoxicity against human MDA-MB-231 cells assessed as reduction in cell viability incubated for 4 hrs by neutral red uptake assay; format: cell-based; conditions: mda-mb-231, 4 h
[6] = Cardiotoxicity in medaka embryo post hatching 24 hrs assessed as reduction in heart beat at 10 uM measured after 1 hr; format: toxicity; conditions: oryzias latipes
MDA-MB-231 [7] = experiment: Induction of cell morphological changes in human MDA-MB-231 cells assessed as membrane blebbing by inverted microscopy; format: functional, cell-based
MDA-MB-231 [8] = experiment: Antimigratory activity against human MDA-MB-231 cells assessed as cell migration at 2.5 uM by light microscopy relative to control; format: functional
[9] = Cardiotoxicity in medaka embryo post hatching 24 hrs assessed as reduction in heart beat at 25 uM measured after 1 hr; format: toxicity; conditions: oryzias latipes
Oryctolagus cuniculus [10] = species on record: Oryctolagus cuniculus; experiment: Inhibition of rabbit muscle F-actin depolymerization incubated for 15 mins by spectrophotometric analysis; format: tissue-based; conditions: Muscle tissue, dose 25-100 µM
MDA-MB-231 [11] = experiment: Antimigratory activity against human MDA-MB-231 cells assessed as minimum effective concentration by light microscopy; format: functional
[12] = Cardiotoxicity in medaka embryo post hatching 24 hrs assessed as reduction in heart beat at 1.25 uM measured after 1 hr; format: toxicity; conditions: oryzias latipes
MDA-MB-231 [13] = experiment: Antimigratory activity against human MDA-MB-231 cells assessed as cell migration by light microscopy; format: functional, cell-based
MDA-MB-231 [14] = experiment: Induction of cell morphological changes in human MDA-MB-231 cells assessed as membrane blebbing at 2 uM measured after 30 mins by inverted microscopy; format: functional, cell-based
MDA-MB-231 [15] = experiment: Antimigratory activity against human MDA-MB-231 cells assessed as cell migration at 5 uM by light microscopy relative to control; format: functional
[16] = Cardiotoxicity in medaka embryo post hatching 24 hrs assessed as reduction in heart beat at 17.5 uM measured after 1 hr; format: toxicity; conditions: oryzias latipes
[17] = biological target: Myosin light chain kinase 2, skeletal/cardiac muscle (Oryctolagus cuniculus) (UniProt P07313); experiment: Inhibition of rabbit skeletal muscle myosin-2 ATPase incubated for 20 mins followed by ATP addition and measured after 20 mins; format: tissue-based; conditions: Skeletal muscle tissue, time 40.0 min
Chain of Myosin light chain kinase 2, skeletal/cardiac muscle (Oryctolagus cuniculus) (P07313 whole entry): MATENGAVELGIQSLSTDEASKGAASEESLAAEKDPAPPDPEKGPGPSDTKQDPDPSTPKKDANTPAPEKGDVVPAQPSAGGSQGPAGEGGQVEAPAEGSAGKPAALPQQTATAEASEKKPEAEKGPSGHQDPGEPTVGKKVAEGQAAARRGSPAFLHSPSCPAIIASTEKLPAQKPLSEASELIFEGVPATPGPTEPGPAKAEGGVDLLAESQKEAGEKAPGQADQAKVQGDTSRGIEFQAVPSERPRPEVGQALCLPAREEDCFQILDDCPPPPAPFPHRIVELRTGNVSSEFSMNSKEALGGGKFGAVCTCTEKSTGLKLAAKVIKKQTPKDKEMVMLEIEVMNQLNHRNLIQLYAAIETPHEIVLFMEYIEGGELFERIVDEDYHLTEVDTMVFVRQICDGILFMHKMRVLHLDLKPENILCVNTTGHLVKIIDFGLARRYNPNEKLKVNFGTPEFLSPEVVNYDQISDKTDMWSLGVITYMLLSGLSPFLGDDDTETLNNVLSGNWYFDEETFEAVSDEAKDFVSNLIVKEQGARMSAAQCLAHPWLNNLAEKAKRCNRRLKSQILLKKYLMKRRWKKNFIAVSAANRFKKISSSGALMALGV

| Structure (SMILES) | inhibition (Oryctolagus cuniculus [1]) | Activity (Oryctolagus cuniculus [2]) [%] | Activity (MDA-MB-231 [3]) | Activity (MDA-MB-231 [4]) [%] | Activity (MDA-MB-231 [5]) | Activity [6] | Activity (MDA-MB-231 [7]) | Activity (MDA-MB-231 [8]) | Activity [9] | inhibition (Oryctolagus cuniculus [10]) | LED (MDA-MB-231 [11]) [µM] | Activity [12] | inhibition (MDA-MB-231 [13]) | Activity (MDA-MB-231 [14]) | Activity (MDA-MB-231 [15]) [%] | Activity [16] | inhibition [17] |
| --- | --- | --- | --- | --- | --- | --- | --- | --- | --- | --- | --- | --- | --- | --- | --- | --- | --- |
| C=C1[C@@H](C)[C@H]2[C@H](Cc3ccccc3)NC(=O)[C@]23OC(=O)/C=C/[C@H](O)CCC[C@@H](C)C/C=C/[C@H]3[C@@H]1O [CYTOCHALASIN B] | Active | 43.5 | Active | 8.2 | Toxic | Non-Toxic |  |  |  |  |  |  |  |  |  |  |  |
| Oc1cc(O)c2c(c1)O[C@H](c1cc(O)c(O)c(O)c1)[C@H](O)C2 [EPIGALLOCATECHIN] |  | 118 |  |  |  |  | inactive | inactive | Non-Toxic |  |  |  |  |  |  |  |  |
| O=c1c(O)c(-c2ccc(O)c(O)c2)oc2cc(O)cc(O)c12 [QUERCETIN] |  | 74.5 |  |  |  |  | inactive | inactive | Non-Toxic | Dose-dependent effect |  |  |  |  |  |  |  |
| O=c1c(O)c(-c2ccc(O)cc2)oc2cc(O)cc(O)c12 [KAEMPFEROL] |  | 71.8 |  |  |  |  | inactive | 70% | Non-Toxic | Dose-dependent effect | 2.5 |  |  |  |  |  |  |
| Oc1c(Br)cc(Br)cc1-c1[nH]c(Br)c(Br)c1Br [PENTABROMOPSEUDILIN] |  | 104 |  |  | Toxic |  | inactive | 67% |  |  | 1 | Toxic | Dose-dependent effect |  |  |  |  |
| Cc1ccc2c(c1)C(=O)[C@]1(O)CCN(c3ccccc3)C1=N2 | Active | 78.7 |  |  |  | Toxic |  |  |  |  | 5 |  |  | inactive | 136.6 | Non-Toxic |  |
| Oc1c(Cl)cc(Cl)cc1-c1[nH]c(Cl)c(Cl)c1Cl [PENTACHLOROPSEUDILIN] |  | 38.4 |  |  | Toxic |  |  | 62.6% |  |  | 1 | Toxic | Dose-dependent effect |  |  |  | Dose-dependent effect |
